From patent publication US9000012B2 (priority 2009, dated 2015)

Tested on: Phytophthora infestans
Assay: not given
Type: in vivo, Phytophthora infestans on tomato
Conditions: preventive spray on young tomato plants, 500 ppm of active ingredient, inoculated one day after treatment, evaluated 7 days after inoculation; 0% = untreated control, 100% = no disease

Structure (SMILES)	Efficacy [%]
CC(Oc1ccccc1)C(=O)Nc1nc(CON=C(C(=O)N(C)C)c2ccccc2)cs1 (centres unmarked) [Example 130]	100
CN(C)C(=O)C(=NOCc1cccc(NC(=O)OC(C)(C)C)n1)c1ccccc1 [Example 98]	85
C#CCCOC(=O)Nc1cccc(CON=C(C(=O)N(C)C)c2ccccc2)n1 [Example 100]	70
CNC(=O)C(=NOCc1cccc(NC(=O)C2COc3ccccc3O2)n1)c1ccccc1 (centres unmarked) [Example 75]	85

Tested on: not listed separately
Assay: logP of the compounds of table 1
Type: physicochemical
Conditions: not given

Structure (SMILES)	logP
COC(=O)C(=NOCc1cccc(NC(=O)C2COc3ccccc3O2)n1)c1ccccc1 (centres unmarked) [compound 37]	4.16
CC(Oc1ccccc1)C(=O)Nc1nc(CON=C(C(=O)N(C)C)c2ccccc2)cs1 (centres unmarked) [Example 130]	3.21
CCN(C)C(=O)C(=NOCc1cccc(NC(=O)C(C)Oc2ccccc2)n1)c1ccccc1 (centres unmarked) [compound 136]	3.78
COC(=O)C(=NOCc1cccc(NC(=O)OC(C)(C)C)n1)c1ccccc1 [compound 26]	4.20
CN(C)C(=O)C(=NOCc1cccc(NC(=O)OC(C)(C)C)n1)c1ccccc1 [Example 98]	3.37
CNC(=O)C(=NOCc1cccc(NCCCc2ccccc2)n1)c1ccccc1 [compound 79]	1.94
C#CCCOC(=O)Nc1nc(CON=C(C(=O)N(C)CC)c2ccccc2)cs1 [compound 152]	2.80
CCN(C)C(=O)C(=NOCc1cccc(NC(=O)c2ccc(Cl)cc2)n1)c1ccccc1 [compound 140]	3.85
C#CCCOC(=O)Nc1nc(CON=C(C(=O)N(C)C)c2ccccc2)cs1 [compound 120]	2.84
CNC(=O)C(=NOCc1cccc(NC(=O)c2cccc(F)c2)n1)c1ccccc1 [compound 78]	2.84
CCCCCOC(=O)Nc1cccc(CON=C(C(=O)NC)c2ccc(OCc3ccccc3)cc2)n1 [compound 64]	2.65
CCN(C)C(=O)C(=NOCc1cccc(NC(=O)C2COc3ccccc3O2)n1)c1ccccc1 (centres unmarked) [compound 139]	3.69
CNC(=O)C(=NOCc1cccc(NCCC2CCCCC2)n1)c1ccccc1 [compound 82]	2.23
CC(C)(C)OC(=O)Nc1cccc(CON=C(C#N)c2ccccc2)n1 [compound 1]	4.64
CNC(=O)C(=NOCc1cccc(NC(=O)OC(C)(C)C)n1)c1ccccc1 [compound 62]	2.88
C=CCCOC(=O)Nc1cccc(CON=C(C(=O)OC)c2ccccc2)n1 [compound 42]	3.94
CCCCCOC(=O)Nc1cccc(CON=C(C(=O)NC)c2ccc(Oc3ccccc3)cc2)n1 [compound 65]	2.64
COc1ccc(OC(=O)Nc2cccc(CON=C(C(=O)N(C)C)c3ccccc3)n2)cc1 [compound 117]	3.25
CNC(=O)C(=NOCc1cccc(N)n1)c1ccc(OCc2ccccc2)cc1 [compound 61]	1.17
C#CCCOC(=O)Nc1cccc(CON=C(C(=O)N(C)C)c2ccccc2)n1 [Example 100]	1.83
CNC(=O)C(=NOCc1cccc(NC(=O)C2COc3ccccc3O2)n1)c1ccccc1 (centres unmarked) [Example 75]	3.06
CCN(C)C(=O)C(=NOCc1csc(NC(=O)OCCOc2ccccc2)n1)c1ccccc1 [compound 151]	3.48

Structure (SMILES)	logP
CN(C)C(=O)C(=NOCc1csc(NC(=O)c2ccc(Cl)cc2)n1)c1ccccc1 [compound 132]	3.41
CCN(C)C(=O)C(=NOCc1cccc(NC(=O)OC(C)(C)C)n1)c1ccccc1 [compound 142]	3.72
CCN(C)C(=O)C(=NOCc1csc(NC(=O)C2COc3ccccc3O2)n1)c1ccccc1 (centres unmarked) [compound 149]	3.39
C=CCCOC(=O)Nc1cccc(CON=C(C(=O)NC)c2ccccc2)n1 [compound 80]	2.77
COC(=O)C(=NOCc1cccc(N)n1)c1ccccc1 [compound 25]	1.32
CC#CCOC(=O)Nc1cccc(CON=C(C(=O)NC)c2ccccc2)n1 [compound 83]	2.59
C#CCCOC(=O)Nc1cccc(CON=C(C(=O)OC)c2ccccc2)n1 [compound 28]	3.48
C=CCCOC(=O)Nc1cccc(CON=C(C(=O)N(C)C)c2ccccc2)n1 [compound 116]	3.19
CCN(C)C(=O)C(=NOCc1cccc(NC(=O)OCCOc2ccccc2)n1)c1ccccc1 [compound 141]	3.76
COc1ccc(C(=O)Nc2nc(CON=C(C(=O)N(C)C)c3ccccc3)cs2)cc1 [compound 134]	2.84
COc1ccc(CC(=O)Nc2nc(CON=C(C(=O)N(C)C)c3ccccc3)cs2)cc1 [compound 131]	2.88
CCCCCCOC(=O)Nc1cccc(CON=C(C(=O)OC)c2ccccc2)n1 [compound 46]	5.14
C#CCCCCOC(=O)Nc1nc(CON=C(C(=O)N(C)C)c2ccccc2)cs1 [compound 122]	3.06
C#CCC(C)OC(=O)Nc1nc(CON=C(C(=O)N(C)CC)c2ccccc2)cs1 (centres unmarked) [compound 145]	3.09
COC(=O)C(=NOCc1cccc(NCCC2CCCCC2)n1)c1ccccc1 [compound 44]	3.04
CCCCCOC(=O)Nc1cccc(CON=C(C(=O)OC)c2ccccc2)n1 [compound 27]	3.69
CN(C)C(=O)C(=NOCc1cccc(NC(=O)c2cccc(F)c2)n1)c1ccccc1 [compound 113]	3.23
C#CCCCCOC(=O)Nc1nc(CON=C(C(=O)N(C)CC)c2ccccc2)cs1 [compound 148]	3.29
C#CCC(C)OC(=O)Nc1cccc(CON=C(C(=O)N(C)CC)c2ccccc2)n1 (centres unmarked) [compound 135]	3.31
CCN(C)C(=O)C(=NOCc1csc(N)n1)c1ccccc1 [compound 144]	1.34
CCCCCCOC(=O)Nc1cccc(CON=C(C(=O)NC)c2ccccc2)n1 [compound 84]	3.48
CNC(=O)C(=NOCc1cccc(NC(=O)C(F)(F)Oc2ccccc2)n1)c1ccccc1 [compound 76]	3.35

Structure (SMILES)	logP
CCN(C)C(=O)C(=NOCc1csc(NC(=O)C(C)Oc2ccccc2)n1)c1ccccc1 (centres unmarked) [compound 146]	3.48
CCN(C)C(=O)C(=NOCc1csc(NC(=O)Cc2ccc(OC)cc2)n1)c1ccccc1 [compound 147]	3.09
COC(=O)C(=NOCc1cccc(NCCCc2ccccc2)n1)c1ccccc1 [compound 41]	2.60
COC(=O)C(=NOCc1cccc(NC(=O)Cc2ccc(OC)cc2)n1)c1ccccc1 [compound 39]	3.69
CC#CCOC(=O)Nc1cccc(CON=C(C(=O)OC)c2ccccc2)n1 [compound 45]	3.67
CN(C)C(=O)C(=NOCc1cccc(N)n1)c1ccccc1 [compound 97]	1.10
CNC(=O)C(=NOCc1cccc(NC(=O)Cc2ccc(OC)cc2)n1)c1ccccc1 [compound 77]	2.66
COC(=O)C(=NOCc1cccc(NC(=O)C(F)(F)Oc2ccccc2)n1)c1ccccc1 [compound 38]	4.41
CCN(C)C(=O)C(=NOCc1cccc(NC(=O)Cc2ccc(OC)cc2)n1)c1ccccc1 [compound 137]	3.23
CN(C)C(=O)C(=NOCc1cccc(NC(=O)OCCOc2ccccc2)n1)c1ccccc1 [compound 115]	3.48
CNC(=O)C(=NOCc1cccc(N)n1)c1ccccc1 [compound 60]	0.65
COC(=O)C(=NOCc1cccc(NC(=O)c2cccs2)n1)c1ccccc1 [compound 43]	3.67
CN(C)C(=O)C(=NOCc1csc(NC(=O)OCCOc2ccccc2)n1)c1ccccc1 [compound 133]	3.27
CN(C)C(=O)C(=NOCc1cccc(NC(=O)c2ccc(Cl)cc2)n1)c1ccccc1 [compound 114]	3.57
COC(=O)C(=NOCc1cccc(NC(=O)c2cccc(F)c2)n1)c1ccccc1 [compound 40]	3.94
C#CCCCCOC(=O)Nc1cccc(CON=C(C(=O)N(C)CC)c2ccccc2)n1 [compound 138]	3.35
CNC(=O)C(=NOCc1cccc(NC(=O)c2cccs2)n1)c1ccccc1 [compound 81]	2.57
C#CCC(C)OC(=O)Nc1nc(CON=C(C(=O)N(C)C)c2ccccc2)cs1 (centres unmarked) [compound 121]	2.84
CCN(C)C(=O)C(=NOCc1csc(NC(=O)c2ccc(Cl)cc2)n1)c1ccccc1 [compound 150]	3.69
C#CCCOC(=O)Nc1cccc(CON=C(C(=O)N(C)CC)c2ccccc2)n1 [compound 143]	3.04

Same assay, conditions: read-out: logP

Structure (SMILES)	logP
C#CCCOC(=O)Nc1cccc(CON=C(C#N)c2ccccc2)n1 (single isomer, unassigned) [Example 3, but-3-yn-1-yl{6-[({[cyano(phenyl)methylene]amino}oxy)methyl]pyridin-2-yl}carbamate]	3.67

Tested on: not listed separately
Assay: logP of the compounds of table 1
Type: physicochemical
Conditions: not given
Remark: another data set of the same source

Structure (SMILES)	logP
CCON(C)C(=O)C(=NOCc1cccc(NC(=O)C(C)Oc2ccccc2)n1)c1ccccc1 (centres unmarked) [compound 205]	3.94
C#CCCOC(=O)Nc1cccc(CON=C(C(=N)SC)c2ccccc2)n1 [compound 309]	3.02
C#CCCCCOC(=O)Nc1cccc(CON=C(C(=O)N(C)OCC)c2ccccc2)n1 [compound 202]	3.71
CCON(C)C(=O)C(=NOCc1cccc(NC(=O)OC(C)(C)C)n1)c1ccccc1 [compound 201]	2.38
CCON(C)C(=O)C(=NOCc1csc(NC(=O)OCCOc2ccccc2)n1)c1ccccc1 [compound 209]	3.62
C#CCCOC(=O)Nc1cccc(CON=C(C(=N)N(C)N)c2ccccc2)n1 [compound 308]	1.77
CCON(C)C(=O)C(=NOCc1csc(NC(=O)Cc2ccc(OC)cc2)n1)c1ccccc1 [compound 210]	3.23
CCON(C)C(=O)C(=NOCc1cccc(NC(=O)c2ccc(Cl)cc2)n1)c1ccccc1 [compound 204]	4.01
CCON(C)C(=O)C(=NOCc1cccc(NC(=O)OCCOc2ccccc2)n1)c1ccccc1 [compound 207]	3.89
CCON(C)C(=O)C(=NOCc1cccc(NC(=O)C2COc3ccccc3O2)n1)c1ccccc1 (centres unmarked) [compound 203]	3.83
C#CCCCCOC(=O)Nc1nc(CON=C(C(=O)N(C)OCC)c2ccccc2)cs1 [compound 211]	3.44
C#CCCOC(=O)Nc1cccc(CON=C(C(N)=S)c2ccccc2)n1 [compound 310]	2.75
CCON(C)C(=O)C(=NOCc1cccc(NC(=O)Cc2ccc(OC)cc2)n1)c1ccccc1 [compound 206]	3.37
CCON(C)C(=O)C(=NOCc1csc(N)n1)c1ccccc1 [compound 208]	1.35
